≈ marks a conversion by molar mass, not a printed value. Bridge positions count the residues as written; N and C are the ends. Peptide text beside a SMILES is read from it.
How the values were obtained:
[1] = Hemolytic activity in sheep RBC assessed as hemolysis incubated for 30 mins by microplate reader method; type: toxicity, cell-based, Ovis aries, Erythrocyte; settings: sheep red blood cells (erythrocytes), read-out: Activity
[2] = (§1) Selectivity index, ratio of HC50 for hemolytic activity in sheep RBC assessed as 50% hemolysis incubated for 30 mins by microplate reader method to MIC for antibacterial activity against Staphylococcus aureus ATCC 29213 assessed as reduction in bacterial growth measured for 18 to 20 hrs by microbroth dilution method; type: toxicity; settings: sheep red blood cells (erythrocytes), read-out: Selectivity Index
[3] = molecular target: T1, Trypsin (Homo sapiens, UniProt P07477+P07478+P35030); assay: Stability of compound assessed as trypsin (unknown origin) mediated compound degradation measured at 4.5 hrs by LCMS analysis; type: ADME, protein assay; settings: read-out: Drug degradation
[4] = as §1, with “Pseudomonas aeruginosa” for “Staphylococcus aureus”, “27853” for “29213”; type: toxicity; settings: sheep red blood cells (erythrocytes), read-out: Selectivity Index
[5] = Hemolytic activity in sheep RBC assessed as 50% hemolysis incubated for 30 mins by microplate reader method; type: toxicity, cell-based, Ovis aries, Erythrocyte; settings: sheep red blood cells (erythrocytes)
[6] = as §1, with “Bacillus subtilis” for “Staphylococcus aureus”, “6051” for “29213”; type: toxicity; settings: sheep red blood cells (erythrocytes), read-out: Selectivity Index
[7] = as §1, with “Escherichia coli” for “Staphylococcus aureus”, “25922” for “29213”; type: toxicity; settings: sheep red blood cells (erythrocytes), read-out: Selectivity Index
[8] = test system: Bacillus subtilis; assay: Antibacterial activity against Bacillus subtilis ATCC 6051 assessed as reduction in bacterial growth measured for 18 to 20 hrs by microbroth dilution method; type: functional; settings: time 18-20 hrs
[9] = test system: Staphylococcus aureus; assay: Antibacterial activity against Staphylococcus aureus ATCC 29213 assessed as reduction in bacterial growth measured for 18 to 20 hrs by microbroth dilution method; type: functional; settings: time 18-20 hrs
[10] = test system: Pseudomonas aeruginosa; assay: Antibacterial activity against Pseudomonas aeruginosa ATCC 27853 assessed as reduction in bacterial growth measured for 18 to 20 hrs by microbroth dilution method; type: functional; settings: time 18-20 hrs
[11] = test system: Escherichia coli; assay: Antibacterial activity against Escherichia coli ATCC 25922 assessed as reduction in bacterial growth measured for 18 to 20 hrs by microbroth dilution method; type: functional; settings: time 18-20 hrs
[12] = molecular target: T1, Trypsin; assay: Stability of compound assessed as trypsin (unknown origin)-mediated compound degradation measured at 5 mins by LCMS analysis; type: ADME, protein assay
[13] = molecular target: T1, Trypsin; assay: Stability of compound assessed as trypsin (unknown origin)-mediated compound degradation measured at 3 mins by LCMS analysis; type: ADME, protein assay; settings: 0.05 h
[14] = molecular target: T1, Trypsin; assay: Stability of compound assessed as trypsin (unknown origin) mediated compound degradation by measuring H-O1WO3LFO6O7IGAVLO13-OH level measured at 270 mins by LCMS analysis; type: protein assay
[15] = molecular target: T1, Trypsin; assay: Stability of compound assessed as trypsin (unknown origin) mediated compound degradation by measuring H-O1WO3LFO6O7IGAVLO13VL-NH2 level measured at 15 mins by LCMS analysis; type: protein assay
[16] = molecular target: T1, Trypsin; assay: Stability of compound assessed as trypsin (unknown origin) mediated compound degradation by measuring H-WO3LFO6-OH level measured at 120 mins by LCMS analysis; type: protein assay
[17] = molecular target: T1, Trypsin; assay: Stability of compound assessed as trypsin (unknown origin) mediated compound degradation by measuring H-O1WO3LFO6O7-OH level measured at 15 mins by LCMS analysis; type: protein assay
[18] = molecular target: T1, Trypsin; assay: Stability of compound assessed as trypsin (unknown origin) mediated compound degradation by measuring H-O1WO3LFO6-OH level measured at 270 mins by LCMS analysis; type: protein assay
[19] = molecular target: T1, Trypsin; assay: Stability of compound assessed as trypsin (unknown origin) mediated compound degradation by measuring H-O7IGAVLO13VL-NH2 level measured at 270 mins by LCMS analysis; type: protein assay
[20] = molecular target: T1, Trypsin; assay: Stability of compound assessed as trypsin (unknown origin) mediated compound degradation by measuring H-O7IGAVLO13VL-NH2 level measured at 120 mins by LCMS analysis; type: protein assay
[21] = molecular target: T1, Trypsin; assay: Stability of compound assessed as trypsin (unknown origin) mediated compound degradation by measuring H-O1WO3LFO6O7-OH level measured at 120 mins by LCMS analysis; type: protein assay
[22] = molecular target: T1, Trypsin; assay: Stability of compound assessed as trypsin (unknown origin) mediated compound degradation by measuring H-O1WO3LFO6O7IGAVLO13VL-NH2 level measured at 120 mins by LCMS analysis; type: protein assay
[23] = molecular target: T1, Trypsin; assay: Stability of compound assessed as trypsin (unknown origin) mediated compound degradation by measuring H-O1WO3LFO6-OH level measured at 15 mins by LCMS analysis; type: protein assay
[24] = molecular target: T1, Trypsin; assay: Stability of compound assessed as trypsin (unknown origin) mediated compound degradation by measuring H-O1WO3LFO6O7IGAVLO13-OH level measured at 120 mins by LCMS analysis; type: protein assay
[25] = molecular target: T1, Trypsin; assay: Stability of compound assessed as trypsin (unknown origin) mediated compound degradation by measuring H-O1WO3LFO6O7-OH level measured at 270 mins by LCMS analysis; type: protein assay
[26] = molecular target: T1, Trypsin; assay: Stability of compound assessed as trypsin (unknown origin) mediated compound degradation by measuring H-O1WO3LFO6-OH level measured at 60 mins by LCMS analysis; type: protein assay
[27] = molecular target: T1, Trypsin; assay: Stability of compound assessed as trypsin (unknown origin) mediated compound degradation by measuring H-O1WO3LFO6O7IGAVLO13VL-NH2 level measured at 270 mins by LCMS analysis; type: protein assay
[28] = molecular target: T1, Trypsin; assay: Stability of compound assessed as trypsin (unknown origin) mediated compound degradation by measuring H-O1WO3LFO6O7IGAVLO13VL-NH2 level measured at 60 mins by LCMS analysis; type: protein assay
[29] = molecular target: T1, Trypsin; assay: Stability of compound assessed as trypsin (unknown origin) mediated compound degradation by measuring H-WO3LFO6-OH level measured at 60 mins by LCMS analysis; type: protein assay
[30] = molecular target: T1, Trypsin; assay: Stability of compound assessed as trypsin (unknown origin) mediated compound degradation by measuring H-WO3LFO6-OH level measured at 270 mins by LCMS analysis; type: protein assay
[31] = molecular target: T1, Trypsin; assay: Stability of compound assessed as trypsin (unknown origin) mediated compound degradation by measuring H-O7IGAVLO13VL-NH2 level measured at 60 mins by LCMS analysis; type: protein assay
[32] = molecular target: T1, Trypsin; assay: Stability of compound assessed as trypsin (unknown origin) mediated compound degradation by measuring H-WO3LFO6-OH level measured at 15 mins by LCMS analysis; type: protein assay
[33] = molecular target: T1, Trypsin; assay: Stability of compound assessed as trypsin (unknown origin) mediated compound degradation by measuring H-O1WO3LFO6O7-OH level measured at 60 mins by LCMS analysis; type: protein assay
[34] = molecular target: T1, Trypsin; assay: Stability of compound assessed as trypsin (unknown origin) mediated compound degradation by measuring H-O1WO3LFO6-OH level measured at 120 mins by LCMS analysis; type: protein assay
[35] = molecular target: T1, Trypsin; assay: Stability of compound assessed as trypsin (unknown origin) mediated compound degradation by measuring H-O1WO3LFO6O7IGAVLO13-OH level measured at 60 mins by LCMS analysis; type: protein assay

With `CC[C@H](C)[C@H](NC(=O)[C@H](CCCN)NC(=O)[C@H](CCCN)NC(=O)[C@H](Cc1ccccc1)NC(=O)[C@H](CC(C)C)NC(=O)[C@H](CCCN)NC(=O)[C@H](Cc1c[nH]c2ccccc12)NC(=O)[C@@H](N)CCCN)C(=O)NCC(=O)N[C@@H](C)C(=O)N[C@H](C(=O)N[C@@H](CC(C)C)C(=O)N[C@@H](CCCN)C(=O)N[C@H](C(=O)N[C@@H](CC(C)C)C(N)=O)C(C)C)C(C)C` the hemolysis at 0.5 h [1] was 10%, the selectivity ratio at 30 min [2] was > 125 and the metabolised at 4.5 h [3] was 58%. The selectivity ratio at 30 min [4] was > 125, the HC50 at 0.5 h [5] was > 1000 µg/mL and the selectivity ratio at 30 min [6] was > 31. The selectivity ratio at 30 min [7] was > 250.

With H-RWKLFKKIGAVLKVL-NH2 the hemolysis at 0.5 h [1] was 10%, the MIC [8] was 32 µg/mL and the selectivity ratio at 30 min [2] was 113. For the same molecule, the selectivity ratio at 30 min [4] was 56, the HC50 at 0.5 h [5] was 450 µg/mL and the selectivity ratio at 30 min [6] was 14. It also gave an MIC [9] of 4 µg/mL, a selectivity ratio at 30 min [7] of 113 and an MIC [10] of 8 µg/mL. The MIC [11] was 4 µg/mL.

For `CC[C@H](C)[C@@H]1NC(=O)[C@H](CCCCN)NC(=O)[C@H](CCCCN)NC(=O)[C@H](Cc2ccccc2)NC(=O)[C@H](CC(C)C)NC(=O)[C@H](CCCCN)NC(=O)[C@H](Cc2c[nH]c3ccccc23)NC(=O)[C@H](CCCCN)NC(=O)[C@@H](N)CSSC[C@@H](C(N)=O)NC(=O)[C@H](CC(C)C)NC(=O)[C@H](C(C)C)NC(=O)[C@H](CCCCN)NC(=O)[C@H](CC(C)C)NC(=O)[C@H](C(C)C)NC(=O)[C@H](C)NC(=O)CNC1=O` (H-CKWKLFKKIGAVLKVLC-NH2; disulfide 1-17), the hemolysis at 0.5 h [1] was 10%, the MIC [8] was 8 µg/mL (≈ 4.05 µM) and the selectivity ratio at 30 min [2] was > 250. For the same molecule, the selectivity ratio at 30 min [4] was > 63, the HC50 at 0.5 h [5] was > 1000 µg/mL and the Stability [12] was “Stable”. The selectivity ratio at 30 min [6] was > 125, the MIC [9] was 4 µg/mL (≈ 2.03 µM) and the selectivity ratio at 30 min [7] was > 500. For the same molecule, the MIC [10] was 16 µg/mL (≈ 8.1 µM) and the MIC [11] was 2 µg/mL (≈ 1.01 µM).

Work on H-KWKLFKKIGAVLKVL-NH2 yielded a hemolysis at 0.5 h [1] of 10%, an MIC [8] of 32 µg/mL and a selectivity ratio at 30 min [2] of 173. For the same molecule, the Stability [13] was “Unstable”, the selectivity ratio at 30 min [4] was 86 and the HC50 at 0.5 h [5] was 690 µg/mL. It also gave a selectivity ratio at 30 min [6] of 22, an MIC [9] of 4 µg/mL and a selectivity ratio at 30 min [7] of 173. The MIC [10] was 8 µg/mL and the MIC [11] was 4 µg/mL.

`CC[C@H](C)[C@H](NC(=O)[C@H](CCCN)NC(=O)[C@H](CCCN)NC(=O)[C@H](Cc1ccccc1)NC(=O)[C@H](CC(C)C)NC(=O)[C@H](CCCN)NC(=O)[C@H](Cc1c[nH]c2ccccc12)NC(=O)[C@@H](N)CCCN)C(=O)NCC(=O)N[C@H](C)C(=O)N[C@H](C(=O)N[C@@H](CC(C)C)C(=O)N[C@@H](CCCN)C(=O)N[C@H](C(=O)N[C@@H](CC(C)C)C(N)=O)C(C)C)C(C)C` showed a Drug degradation [14] of 2.2%, a Drug degradation [15] of 98.1% and a Drug degradation [16] of 5.6%. It also gave a Drug degradation [17] of 0.4%, a Drug degradation [18] of 17.3% and a Drug degradation [19] of 2.5%. The Drug degradation [20] was 1.6%, the Drug degradation [21] was 4% and the Drug degradation [22] was 79.4%. The Drug degradation [23] was 0.9%, the Drug degradation [24] was 1% and the Drug degradation [25] was 7.6%. It also gave a Drug degradation [26] of 4.3%, a Drug degradation [27] of 58.3% and a Drug degradation [28] of 89.4%. It also gave a Drug degradation [29] of 2.8%, a Drug degradation [30] of 12.1% and a Drug degradation [31] of 0.9%. It also gave a Drug degradation [32] of 0.6%, a Drug degradation [33] of 2.1% and a Drug degradation [34] of 8.4%. The Drug degradation [35] was 0.5%.

Reference: ChEMBL document CHEMBL5126613, “Novel CA(1-7)M(2-9) Analogs: Synthesis, Characterization, and Antibacterial Evaluation” (ACS Med Chem Lett, 2022)
